≈ marks a conversion by molar mass, not a printed value. Where “and” joins values, the source holds several entries; their conditions need not be identical. Equal values may be shown once. Read-outs that look alike come from different tables or passages of the source. No end group written: not given here.
Key:
[1] = tested on: Staphylococcus aureus isolates (n = 104); assay: Broth microdilution MIC, clinical isolate panel; assay type: cell-based; details: Staphylococcus aureus (n = 104), all methicillin-resistant
Description: (§1) Comparator antibiotics were supplied by Micromyx, and stock solutions were prepared on the first day of testing using solvents recommended by CLSI (1). Stock solutions of all compounds were made at 40× the final testing concentration and stored at −80° C. prior to testing. Information regarding compound source, catalog and lot number, testing concentrations and drug diluent for the comparators and test agent are detailed below in Table 3.
(§2) The test organisms evaluated in this study consisted of clinical isolates from the Micromyx Repository and reference isolates from the American Type Culture Collection (ATCC; Manassas, Va.). The clinical isolates were obtained from USA hospitals. Upon initial receipt at Micromyx, the organisms were sub-cultured onto an appropriate agar medium. Following incubation, colonies were harvested from these plates and cell suspensions prepared and frozen at −80° C. with a cryoprotectant. Prior to testing, the isolates were streaked from frozen vials onto Trypticase Soy Agar with 5% sheep blood (Becton Dickenson [BD]; Sparks, Md.; Lot Nos. 7173618, 7166759, 7208688, 72144895, 7228505 and Remel Lenexa, Kans. Lot No. 212574). Plates were incubated at 35° C. overnight.
(§3) Mueller Hinton II broth (MHB II; BD; Lot Nos. 6258541 and 7143896) was used for MIC testing of aerobic organisms.
(§4) MIC values were determined using a broth microdilution procedure described by CLSI (1, 3). Automated liquid handlers (Multidrop 384, Labsystems, Helsinki, Finland; Biomek 2000 and Biomek FX, Beckman Coulter, Fullerton Calif.) were used to conduct serial dilutions and liquid transfers.
(§5) To prepare the drug mother plates, which would provide the serial drug dilutions for the replicate daughter plates, the wells of columns 2-12 of standard 96-well microdilution plates (Costar 3795) were filled with 150 μl of the designated diluent for each row of drug. The test articles and comparator compounds (300 μl at 40× the highest concentration to be tested) were dispensed into the appropriate wells in column 1. The Biomek 2000 was then used to make 2-fold serial dilutions in the mother plates from column 1 through column 11. The wells of Column 12 contained no drug and served as the organism growth control wells for the assay.
(§6) The daughter plates were loaded with 185 μL per well of MHB II using the Multidrop 384. The daughter plates were completed on the Biomek FX instrument which transferred 5 µL of drug solution from each well of a mother plate to the corresponding well of each daughter plate in a single step. A standardized inoculum of each test organism was prepared per CLSI methods (1). The inoculum for each organism was dispensed into sterile reservoirs divided by length (Beckman Coulter), and the Biomek 2000 was used to inoculate the plates. Daughter plates were placed on the Biomek 2000 work surface in reverse orientation so that inoculation took place from low to high drug concentration.
(§7) Plates were stacked 3-4 high, covered with a lid on the top plate, placed in plastic bags, and incubated at 35° C. for 16 to 20 hrs. Following incubation, the microplates were removed from the incubator and viewed from the bottom using a plate viewer. […] The MIC was read and recorded as the lowest concentration of drug that inhibited visible growth of the organism.
(§8) Clinical breakpoints to determine percent resistance within a given organism group were obtained from CLSI (3), with the exception of colistin for K. pneumoniae, Enterobacter spp., and E. coli, which are only available from EUCAST.

[2] = tested on: Enterococcus faecium isolates (n = 104); assay: Broth microdilution MIC, clinical isolate panel; assay type: cell-based
Description: as §1, §2, §3, §4, §5, §6, §7, §8

[3] = for AUC(0-inf): AUCinf; for clearance: CL; for half-life: T 1/2, macaque; for Vd: Vss
Description: Animals will be obtained from the Test Facility's colony of adult male cynomolgous monkeys (Macaca fascicularis) of Chinese origin. Animals will be weighed prior to dosing.
Animals will be fasted a minimum of 2 hours prior to procedures requiring the administration of ketamine anesthesia. The diet will also be supplemented with other nutrients by feeding items such as raisins or fresh fruits that are presented to the animal as part of an environmental enrichment program. Offering items known to cause diarrhea will be avoided.
Intravenous administration will be via 30 minute infusion into a temporary percutaneous catheter placed into a saphenous vein. Prior to and following dose administration, the catheter will be flushed with 0.5 mL saline prior to removal. All dosing syringes will be weighed prior to and following dosing.
All animals will be observed at dosing and each scheduled collection. All abnormalities will be recorded.
Serial blood samples will be collected via femoral vein (cephalic or saphenous, as necessary). Approximately 1 mL blood samples will be collected into K2EDTA tubes.
Blood samples will be collected into K2EDTA tubes and stored on wet ice. Whole blood will be processed to plasma by centrifugation (2400-2700 rpm at 5° C.) within 30 minutes of collection. Plasma samples will be split into 2 equal aliquots and stored at −80° C. until analysis.
Administered doses will be determined gravimetrically.
Prior to extraction, a known concentration of a mass-adjusted internal standard (IS) will be added to assess recovery and allow for quantitation. Purified samples will be further subjected to high-performance liquid chromatography (HPLC) using C18 300 or 130 angstrom columns prior to MS/MS analysis. Multiple charge states will be observed by MS, so MS/MS will be employed to enable multiple reaction monitoring (MRM) analyses to determine the most MRM transitions with the highest signal-to-noise gain. Compound plasma concentrations will be determined by comparing to and compensating with co-purified IS peak intensity and validated calibrated standard curves.
Toxicokinetic parameters will be calculated using non-compartmental methods as implemented in the Phoenix® WinNonlin® ver. 6.3 comprehensive TK/PK analysis software program (Pharsight Corporation; Mountain View, Calif.) using an IV infusion model. Toxicokinetic analysis will be conducted using a 30-minute intravenous infusion time. Therefore, 30 minutes will be added to each sample time point postdose to obtain nominal time for TK analysis. Nominal times and dosage levels will be used for all calculations. Values below the lower limit of quantitation (BLQ) will be assigned a value of zero for the toxicokinetic calculations. Microsoft® Excel® 2013 will be used for receipt of bioanalytical data, minor formatting, including setting BLQ values to “0”, transfer into WinNonlin® for TK analysis, and calculation of the mean when an approximated value will be excluded. All plasma concentration data from all animals will be included in the analysis. Graphical presentations will be performed using Prism® for Macintosh ver. 7.0a (GraphPad, Inc.; La Jolla, Calif.).

[4] = mouse, in vivo, iv; for Vd: male CD-1 mice
Description: Male CD-1 mice will be received from an approved vendor and allowed to acclimate for a minimum of two days. Fasting will be not required.
All dosing syringes will be weighed prior to and following dosing. IV doses will be administered as a slow bolus (over ˜30 seconds) via direct venipuncture of a tail vein. All animals will be observed at dosing and each scheduled collection. All abnormalities will be recorded.
Terminal blood samples will be collected via cardiac puncture following inhalation anesthesia.
Sample Processing and Storage: Blood samples will be collected into K2EDTA tubes and stored on wet ice. Whole blood will be processed to plasma by centrifugation (3500 rpm at 5° C.) within 30 minutes of collection. Plasma samples will be split into 2 equal aliquots and each transferred into 96 well plates (matrix tubes) and stored at −80° C. until analysis. Administered doses will be determined gravimetrically.
Pharmacokinetic parameters will be calculated using non-compartmental methods as implemented in the Phoenix® WinNonlin® ver. 6.3 comprehensive TK/PK analysis software program (Pharsight Corporation; Mountain View, Calif.) using an IV infusion model. Pharmacokinetic analysis will be conducted using a 30-minute intravenous infusion time. Therefore, 30 minutes will be added to each sample time point postdose to obtain nominal time for TK analysis. Nominal times and dosage levels will be used for all calculations. Values below the lower limit of quantitation (BLQ) will be assigned a value of zero for the pharmacokinetic calculations. Microsoft® Excel® 2013 will be used for receipt of bioanalytical data, minor formatting, including setting BLQ values to “0”, transfer into WinNonlin® for PK analysis, and calculation of the mean when an approximated value will be excluded. All plasma concentration data from all animals will be included in the analysis. Graphical presentations will be performed using Microsoft® Excel® 2013.

[5] = cynomolgus monkey, in vivo, iv, 1 mg/kg, macaque, 1 mg/kg IV infusion, Mean
[6] = cynomolgus monkey, in vivo, iv, 3 mg/kg, macaque, 3 mg/kg IV infusion, Mean
[7] = cynomolgus monkey, in vivo, iv, 10 mg/kg, macaque, 10 mg/kg IV infusion, Mean

For `C[C@H]1c2cccc(O)c2C(=O)C2=C(O)[C@]3(O)C(=O)C(C(N)=O)=C(O)[C@@H](N(C)C)[C@@H]3[C@@H](O)[C@@H]21` [Doxycycline], the “% R (percent of isolates resistant, clinical breakpoints)” value [1] was 0%, the MIC50 [1] was 0.12 µg/mL (≈ 0.27 µM) and the MIC90 [1] was 1 µg/mL (≈ 2.25 µM).
In the case of `CC(=O)NC[C@H]1CN(c2ccc(N3CCOCC3)c(F)c2)C(=O)O1` [Linezolid], the “% R (percent of isolates resistant, clinical breakpoints)” value ([2]; Enterococcus faecium (n = 104)) is reported as 3.8%, the MIC ([2]; Enterococcus faecium, read-out: Mode (MIC)) is reported as 2 µg/mL (≈ 5.93 µM) and the “% R (percent of isolates resistant, clinical breakpoints)” value [1] is reported as 1.9%. The MIC90 [1] was 2 µg/mL (≈ 5.93 µM) and the MIC ([1]; read-out: Mode (MIC)) was 2 µg/mL (≈ 5.93 µM).
For “RRWVRRVRRVWRRVVRVVRRWVRR-NH2 [SEQ ID NO: 1]”, the AUC(0-t) ([3]; cynomolgus monkey, in vivo, iv, 1 mg/kg, AUC0-24hr, macaque, 1 mg/kg IV infusion, Mean) was 1090 ng·h/mL, the AUC(0-inf) [3, 5] was 1170 ng·h/mL and the AUC(0-t) ([3]; cynomolgus monkey, in vivo, iv, 1 mg/kg, AUClast, macaque, 1 mg/kg IV infusion, Mean) was 983 ng·h/mL. For the same compound, the clearance [3, 5] was 18.5 mL/min/kg, the Cmax [3, 5] was 1710 ng/mL and the half-life ([3]; cynomolgus monkey, in vivo, iv, 1 mg/kg, 1 mg/kg IV infusion, Mean) was 2 h. The Vd [3, 5] was 1.38 L/kg, the Vd ([3]; cynomolgus monkey, in vivo, iv, 1 mg/kg, macaque, 1 mg/kg IV infusion, individual monkey) was 1.53 L/kg and the AUC(0-t) ([3]; cynomolgus monkey, in vivo, iv, 3 mg/kg, AUC0-24hr, macaque, 3 mg/kg IV infusion, Mean) was 7580 ng·h/mL. It also gave an AUC(0-inf) [3, 6] of 7710 ng·h/mL, an AUC(0-t) ([3]; cynomolgus monkey, in vivo, iv, 3 mg/kg, AUClast, macaque, 3 mg/kg IV infusion, Mean) of 7580 ng·h/mL and a clearance [3, 6] of 7.18 mL/min/kg. It also gave a Cmax [3, 6] of 10300 ng/mL, a half-life ([3]; cynomolgus monkey, in vivo, iv, 3 mg/kg, 3 mg/kg IV infusion, Mean) of 5.2 h and a half-life ([3]; cynomolgus monkey, in vivo, iv, 3 mg/kg, 3 mg/kg IV infusion, individual monkey) of 4.4 h. For the same compound, the Tmax ([3]; cynomolgus monkey, in vivo, iv, 3 mg/kg, Tmax, macaque, 3 mg/kg IV infusion, Mean) was 6.6 min, the Vd [3, 6] was 1.29 L/kg and the Vd ([3]; cynomolgus monkey, in vivo, iv, 3 mg/kg, macaque, 3 mg/kg IV infusion, individual monkey) was 1.58 L/kg. For the same compound, the AUC(0-t) ([3]; cynomolgus monkey, in vivo, iv, 10 mg/kg, AUC0-24hr, macaque, 10 mg/kg IV infusion, Mean) was 50300 ng·h/mL, the AUC(0-inf) [3, 7] was 50800 ng·h/mL and the AUC(0-t) ([3]; cynomolgus monkey, in vivo, iv, 10 mg/kg, AUClast, macaque, 10 mg/kg IV infusion, Mean) was 50300 ng·h/mL. The clearance [3, 7] was 6.32 mL/min/kg, the Cmax [3, 7] was 38200 ng/mL and the half-life ([3]; cynomolgus monkey, in vivo, iv, 10 mg/kg, 10 mg/kg IV infusion, Mean) was 4.6 h. The half-life ([3]; cynomolgus monkey, in vivo, iv, 10 mg/kg, 10 mg/kg IV infusion, individual monkey) was 4.3 h, the Vd [3, 7] was 1.26 L/kg and the “T 1/2” value ([3]; macaque, 3 mg/kg IV infusion, individual monkey, 3 mg/kg) was 6.3 h and 5 h. The “T 1/2” value ([3]; macaque, 10 mg/kg IV infusion, individual monkey, 10 mg/kg) was 4.9 h and 4.6 h, the AUC(0-inf) ([4]; 3 mg/kg) was under 3500 ng·h/mL and the C0 ([4]; 3 mg/kg) was 26000 ng/mL. It also gave a Cmax ([4]; 3 mg/kg) of 16600 ng/mL, an MRT last ([4]; 3 mg/kg) of about 0.5 h and a Tmax ([4]; 3 mg/kg) of 0.303 h. It also gave a clearance ([4]; 3 mg/kg) of about 5 mL/min/kg, a half-life ([4]; 3 mg/kg) of about 8 h and a Vd ([4]; 3 mg/kg, Vss, 3 mg/kg IV) of about 0.2 L/kg. It also gave a Vd ([4]; 3 mg/kg, Vz, 3 mg/kg IV) of about 3 L/kg, an AUC(0-inf) ([4]; 15 mg/kg) of 53800 ng·h/mL and an AUC(0-t) ([4]; 15 mg/kg) of 53600 ng·h/mL. For the same compound, the C0 ([4]; 15 mg/kg) was 192000 ng/mL, the Cmax ([4]; 15 mg/kg) was 163000 ng/mL and the MRT last ([4]; 15 mg/kg) was 0.579 h. It also gave a clearance ([4]; 15 mg/kg) of 4.65 mL/min/kg, a half-life ([4]; 15 mg/kg) of 7.45 h and a Vd ([4]; 15 mg/kg, Vss, 15 mg/kg IV) of 0.208 L/kg. It also gave a Vd ([4]; 15 mg/kg, Vz, 15 mg/kg IV) of 3 L/kg.

— patent US20200071361A1, “ENGINEERED ANTIMICROBIAL AMPHIPHILIC PEPTIDES AND METHODS OF USE” (priority 2017, published 2020)
